In paper PMC10489644, “In Vitro Evaluation of the Potential for Drug Interactions by Salidroside” (Nutrients, 2023):
“Also recorded” adds a separate entry of the source. Read-outs that look alike come from different tables or passages of the source.

Key:
CYP2D6 [1] = biological target: T1, CYP2D6 (Homo sapiens, UniProt P10635); settings: microsomes
Procedure: (§1) Incubation without 30 min pre-incubation, 178.5 µL of liver microsomes working was pre-incubated in a 37 °C water bath for 30 min. After the pre-incubation, 1.5 μL of test compound or control compound working solution, 60 μL of substrate working solution, and 60 μL of NADPH working solution were added; then, the reaction mixture was mixed by pipetting up and down and then incubated at 37 °C for 10 min. Incubation with 30 min pre-incubation. Next, 1.5 μL of test compound or control compound working solutions and 60 μL of NADPH working solution were added into 178.5 μL of liver microsome working solution, then the reaction mixture was mixed by pipetting up and down and then pre-incubated at 37 °C for 30 min. […]
(§2) For competitive and time-dependent CYP inhibition, the peak area ratios (PAR) of analyte/internal standard were used to semi-quantitatively determine the concentration of acetaminophen (CYP1A2 activity), 4’-hydroxydiclofenac (CYP2C9), 4’-hydroxymephenytoin (CYP2C19), dextrorphan (CYP2D6), 1’-hydroxymidazolam (CYP3A4), 6β-hydroxytestosterone (CYP3A4), hydroxybupropion (CYP2B6), and N-desethylamodiaquine (CYP2C8), with terfenadine as the internal standard by LC-MS/MS method. The HPLC-MS system utilized an Acquity UPLC system and Sciex API 4000 mass spectrometer in ESI positive mode, with quantitation employing MRM. […]

in vitro = settings: human, plasma, pH 7.4
Procedure: The experiment was performed using equilibrium dialysis with the two compartments separated by a semi-permeable membrane. Phosphate-buffered saline (PBS) (pH 7.4) was added to one side of the membrane and the plasma solution to the other side. After equilibration (5 h at 37 °C), samples were taken from both sides of the membrane, transferred to a new plate, and were matrix-matched by the addition of an appropriate amount of PBS to the plasma samples and blank plasma to the PBS samples. […] Incubations were performed in duplicate. Warfarin served as a control. The fraction unbound in plasma (fu,p) = Cb/Cp, where Cb represents the concentration in buffer and Cp the concentration in plasma at 5 h.

CYP2C8 = biological target: T2, CYP2C8 (Homo sapiens, UniProt P10632); settings: microsomes
T2 sequence (P10632 1-490): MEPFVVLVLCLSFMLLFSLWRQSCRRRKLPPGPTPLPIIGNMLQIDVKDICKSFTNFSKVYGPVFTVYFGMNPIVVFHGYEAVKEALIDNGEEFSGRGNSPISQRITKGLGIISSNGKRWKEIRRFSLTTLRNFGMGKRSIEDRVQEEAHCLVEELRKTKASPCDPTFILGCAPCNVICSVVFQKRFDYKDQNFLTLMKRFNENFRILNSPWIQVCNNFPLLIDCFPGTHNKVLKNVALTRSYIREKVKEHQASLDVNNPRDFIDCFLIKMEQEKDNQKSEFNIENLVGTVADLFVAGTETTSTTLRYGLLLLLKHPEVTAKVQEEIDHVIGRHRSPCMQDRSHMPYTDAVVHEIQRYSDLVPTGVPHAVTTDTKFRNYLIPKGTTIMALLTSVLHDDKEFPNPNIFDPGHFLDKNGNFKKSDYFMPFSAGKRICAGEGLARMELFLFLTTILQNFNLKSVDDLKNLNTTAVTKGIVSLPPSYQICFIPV
Procedure: as §1, §2

CYP2D6 [2] = biological target: T1, CYP2D6; test: Time-dependent inhibition (IC50 shift) in human liver microsomes
Procedure: as §1, §2

CYP3A4/5 = settings: microsomes
Procedure: as §1, §2

[3] = Estimation of maximum human plasma concentration
Procedure: An estimation of the maximum plasma concentration of salidroside in humans was made from the pharmacokinetics in rats after oral dosing and the recommended human daily dose of salidroside of 60 mg (two 30 mg capsules). Male Sprague–Dawley rats were dosed either with IV or orally at 12 mg/kg (N = 6/group). Salidroside was moderately cleared (21 mL/min/kg) and well absorbed orally.

OATP1B3 = biological target: T3, OATP1B3 (Homo sapiens, UniProt Q9NPD5); test: Uptake transport inhibition in HEK293-OATP1B3 cells
T3 sequence (Q9NPD5 1-702): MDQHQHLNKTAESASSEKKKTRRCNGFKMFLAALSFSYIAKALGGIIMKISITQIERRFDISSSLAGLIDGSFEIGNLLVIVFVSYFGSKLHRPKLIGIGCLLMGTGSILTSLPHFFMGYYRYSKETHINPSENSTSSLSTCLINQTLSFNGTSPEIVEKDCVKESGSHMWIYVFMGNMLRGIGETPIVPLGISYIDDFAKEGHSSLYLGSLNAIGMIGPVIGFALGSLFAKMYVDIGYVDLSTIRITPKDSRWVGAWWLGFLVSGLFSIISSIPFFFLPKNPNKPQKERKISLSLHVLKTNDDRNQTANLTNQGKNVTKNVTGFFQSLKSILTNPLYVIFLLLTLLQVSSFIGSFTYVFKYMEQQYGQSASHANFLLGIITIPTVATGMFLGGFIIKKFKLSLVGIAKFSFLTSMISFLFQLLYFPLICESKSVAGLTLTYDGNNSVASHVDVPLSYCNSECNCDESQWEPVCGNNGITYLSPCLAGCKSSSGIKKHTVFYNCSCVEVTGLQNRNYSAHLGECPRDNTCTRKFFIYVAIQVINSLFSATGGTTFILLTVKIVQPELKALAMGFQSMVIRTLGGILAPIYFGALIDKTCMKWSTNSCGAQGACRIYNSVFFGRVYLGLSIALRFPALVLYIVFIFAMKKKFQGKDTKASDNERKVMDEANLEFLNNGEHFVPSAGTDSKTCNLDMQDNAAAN
Procedure: HEK293-OATP1B1 and OATP1B3 cells were diluted to 1 × 10^6 cells/mL with DMEM supplemented with 1% non-essential amino acid (NEAA), 10% fetal bovine serum (FBS), 1% PS solution (100 U/mL penicillin-G and 100 μg/mL streptomycin), and seeded on a 96-well BioCoat™ poly-d-lysine plate at a density of 1 × 10^6 cells/mL. […] Once the cells were anchored on the plate, the cell culture was replaced with DMEM containing 10% FBS and 1% PS solution (100 U/mL penicillin-G and 100 μg/mL streptomycin solution) and cultured one day for the uptake and inhibition studies. The cell culture medium was removed from the 96-well plate, then rinsed twice with 0.1 mL/well of pre-warmed transport buffer. The transporter cells containing pre-incubation solution were pre-incubated at 37 °C for 30 min. Then the pre-incubation solution was removed and replaced with 0.1 mL/well of dosing solution containing a substrate, respectively (blank transporter buffer containing a substrate, transport buffer containing a substrate and PC, and transport buffer containing a substrate and salidroside). Then, the transporter cells were incubated at 37 °C for 2 min. After incubation, all solutions in the cells were discarded and rinsed with 0.10 mL/well of ice-cold transport buffer (4 °C) three times. […] All samples were shaken and centrifuged at 4000 rpm at 4 °C for 15 min and the supernatant was removed for future analysis by LC-MS/MS.
Enzyme activity (%) = PAR with compound/PAR vehicle × 100.

CYP3A4 = settings: human, 48 h
[4] = parameters: method as in PMID 35684130; settings: cited from earlier work
CYP2C19 = CYP2C19 (Homo sapiens, UniProt P33261); test: CYP direct inhibition in human liver microsomes
Procedure: (§3) Test compound/controls working solution or DMSO were added in 238.5 µL of liver microsomes working solution, mixed well by pipetting several times and pre-incubated in a 37 °C shaking water bath for 5 min. Following the pre-incubation, 60 µL of NADPH working solution were added, mixed well by pipetting several times, and incubated in a 37 °C shaking water bath for 10 min. Following the incubation, 300 µL of quenching solution were immediately added and vortexed for ~20 s to mix. All samples were centrifuged at 4000 rpm for 15 min at 4 °C and then the supernatant was transferred for LC-MS/MS analysis. IC50 values were determined by the Hill slope equation using Graph Pad Prism.
(§4) For competitive and time-dependent CYP inhibition, the peak area ratios (PAR) of analyte/internal standard were used to semi-quantitatively determine the concentration of acetaminophen (CYP1A2 activity), 4’-hydroxydiclofenac (CYP2C9), 4’-hydroxymephenytoin (CYP2C19), dextrorphan (CYP2D6), 1’-hydroxymidazolam (CYP3A4), 6β-hydroxytestosterone (CYP3A4), hydroxybupropion (CYP2B6), and N-desethylamodiaquine (CYP2C8), with terfenadine as the internal standard by LC-MS/MS method. The HPLC-MS system utilized an Acquity UPLC system and Sciex API 4000 mass spectrometer in ESI positive mode, with quantitation employing MRM. Samples were injected onto an Atlantis T3 5 μM column (2.1 x 50 mm). […]

CYP2D6 [5] = biological target: T1, CYP2D6; test: biochemical
Procedure: as §3, §4

MAO-A = test system: MAO-A; parameters: method as in PMID 19168123; settings: isolated compound at 10 µM; cited from earlier work

T1 sequence (P10635 whole entry): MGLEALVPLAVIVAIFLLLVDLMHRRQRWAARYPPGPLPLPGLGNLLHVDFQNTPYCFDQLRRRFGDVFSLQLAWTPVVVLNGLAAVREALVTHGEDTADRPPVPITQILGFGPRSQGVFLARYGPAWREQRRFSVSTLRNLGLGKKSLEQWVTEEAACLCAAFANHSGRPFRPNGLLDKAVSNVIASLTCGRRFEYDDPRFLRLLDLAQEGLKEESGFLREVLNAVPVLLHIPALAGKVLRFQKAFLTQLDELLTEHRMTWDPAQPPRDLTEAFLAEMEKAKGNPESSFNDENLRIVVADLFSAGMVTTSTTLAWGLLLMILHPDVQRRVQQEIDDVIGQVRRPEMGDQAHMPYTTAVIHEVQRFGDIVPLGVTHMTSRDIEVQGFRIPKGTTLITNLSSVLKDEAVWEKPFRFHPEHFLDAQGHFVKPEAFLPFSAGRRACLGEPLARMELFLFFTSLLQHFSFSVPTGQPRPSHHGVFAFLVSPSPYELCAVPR
CYP2C19, sequence (P33261 whole entry): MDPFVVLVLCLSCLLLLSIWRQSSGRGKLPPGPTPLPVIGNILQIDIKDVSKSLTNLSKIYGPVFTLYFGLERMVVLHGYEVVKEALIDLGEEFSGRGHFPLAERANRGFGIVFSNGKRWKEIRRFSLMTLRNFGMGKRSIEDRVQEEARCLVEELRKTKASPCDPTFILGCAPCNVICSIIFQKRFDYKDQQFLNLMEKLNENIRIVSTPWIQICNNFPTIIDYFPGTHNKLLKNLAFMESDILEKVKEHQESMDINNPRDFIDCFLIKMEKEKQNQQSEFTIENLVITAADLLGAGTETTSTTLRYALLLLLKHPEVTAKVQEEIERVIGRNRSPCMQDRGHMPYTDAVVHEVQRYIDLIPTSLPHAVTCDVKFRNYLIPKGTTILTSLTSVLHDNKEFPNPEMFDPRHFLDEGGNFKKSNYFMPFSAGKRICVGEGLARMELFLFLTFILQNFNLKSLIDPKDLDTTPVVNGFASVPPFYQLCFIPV

For `OC[C@H]1O[C@@H](OCCc2ccc(O)cc2)[C@H](O)[C@@H](O)[C@@H]1O` [Salidroside], the “IC50 Shift” value (CYP2D6 [1]) was “no shift”, the fraction unbound at 5 h, 5 µM (in vitro) was 0.985 and the “IC50 Shift” value (CYP2C8) was “no shift”. For the same molecule, the IC50 (CYP2D6 [2]) was > 50 µM, the “IC50 Shift” value (CYP3A4/5) was “no shift” and the Cmax ([3]; 60 mg PO daily (~1 mg/kg), scaled from rat, read-out: predicted human total Cmax (predicted plasma concentration)) was < 2 µM. For the same molecule, the “predicted human unbound Cmax” value ([3]; 60 mg daily, Cmax x fu,plasma) was ~ 1.18 μM, the IC50 (OATP1B3) was > 100 µM and the “mean control activities (% of control activity) / inhibition of OATP1B3” value (OATP1B3; 100 µM) was “unchanged; also recorded: no inhibition”. The “% Positive Control” value (CYP3A4; 3 µM) was 0%, the “% Positive Control” value (CYP3A4; 10 µM) was 0% and the genotoxicity [4] was “not genotoxic”. The IC50 (CYP2C19) was > 50 µM, the IC50 (CYP2D6 [5]) was > 50 µM and the “inhibition of MAO-A” value (MAO-A) was “inactive”.
